Laboratory results published in patent publication US5539119A, “Indole derivatives” (priority 1990, dated 1996).
Like-named read-outs stand apart in the source and are kept apart here.

How the values were obtained:
Mouse Vas Deferens (MVD) = experiment: Agonist activity in Mouse Vas Deferens (MVD); conditions: read-out: MVD IC50
Experimental: (§1) The test of the compounds of this invention for agonist and antagonist activities was carried out in according to the method proposed by Takemori et al. (Takemori, A, E. et al.: Eur. J. Pharmacal., 1982, 85, 163) using Guinea Pig Ileal Longitudinal Muscle Mouse Vas Deferens (MVD).

μ opioid receptor = biological target: T1, μ opioid receptor (Cavia porcellus, UniProt A0ACM8Q262); experiment: Bonding (binding) assay, guinea pig brain homogenate, 3H-DAGO (hot) / naloxone (cold); conditions: for Ki: guinea pig brain homogenate; for Ki ratio κ/μ: selectivity ratio
T1 construct: 3H-DAGO (DAMGO) radioligand, cold naloxone
T1 sequence (A0ACM8Q262 1-400): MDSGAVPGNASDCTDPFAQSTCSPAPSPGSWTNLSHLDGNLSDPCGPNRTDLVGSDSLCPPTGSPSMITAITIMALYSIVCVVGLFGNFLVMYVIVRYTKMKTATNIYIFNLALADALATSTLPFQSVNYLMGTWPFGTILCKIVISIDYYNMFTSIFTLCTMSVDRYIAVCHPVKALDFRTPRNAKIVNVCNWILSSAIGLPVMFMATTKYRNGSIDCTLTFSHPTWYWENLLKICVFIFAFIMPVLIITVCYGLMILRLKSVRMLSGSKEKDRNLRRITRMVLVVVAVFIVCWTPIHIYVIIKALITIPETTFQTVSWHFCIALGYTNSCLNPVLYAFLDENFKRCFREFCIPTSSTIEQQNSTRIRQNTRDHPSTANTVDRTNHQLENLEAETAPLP
Experimental: (§2) In the test for bonding, the homogenate of the brain of a guinea pig was diluted with Tris buffer in a ratio calculated to give to the produced solution a protein content of 0.7 mg per prot/tube was used as incorporated in the reaction solution. With regard to ligands for binding assay, 3H-DAGO (μ), DPDPE (δ), and EKC (κ) were used for hot samples and naloxone (μ), DADLE (δ), and naloxone (κ) for cold samples.

κ opioid receptor = biological target: T2, κ opioid receptor (Cavia porcellus, UniProt P41144); experiment: Bonding (binding) assay, guinea pig brain homogenate, EKC (hot) / naloxone (cold)
T2 construct: the homogenate of the brain of a guinea pig; from tissue; host or cells: guinea pig brain homogenate
T2 sequence (P41144 whole entry): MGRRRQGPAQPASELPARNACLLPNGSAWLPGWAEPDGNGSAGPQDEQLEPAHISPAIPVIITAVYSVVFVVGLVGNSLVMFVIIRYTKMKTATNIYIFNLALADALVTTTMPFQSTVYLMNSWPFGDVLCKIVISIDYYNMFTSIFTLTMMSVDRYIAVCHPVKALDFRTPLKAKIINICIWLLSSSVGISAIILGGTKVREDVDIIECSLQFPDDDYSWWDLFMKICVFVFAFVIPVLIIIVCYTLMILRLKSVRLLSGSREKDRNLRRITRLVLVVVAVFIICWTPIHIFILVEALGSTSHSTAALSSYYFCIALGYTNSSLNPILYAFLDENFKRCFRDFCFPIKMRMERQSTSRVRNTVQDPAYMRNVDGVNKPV
Experimental: as §2

δ opioid receptor [1] = experiment: Bonding (binding) assay, guinea pig brain homogenate, DPDPE (hot) / DADLE (cold); conditions: μ/δ
Experimental: as §2

δ opioid receptor [2] = biological target: T3, δ opioid receptor (Cavia porcellus, UniProt A0A286XTF2); experiment: as above
T3 construct: the homogenate of the brain of a guinea pig; from tissue; host or cells: guinea pig brain homogenate
T3 sequence (A0A286XTF2 1-366): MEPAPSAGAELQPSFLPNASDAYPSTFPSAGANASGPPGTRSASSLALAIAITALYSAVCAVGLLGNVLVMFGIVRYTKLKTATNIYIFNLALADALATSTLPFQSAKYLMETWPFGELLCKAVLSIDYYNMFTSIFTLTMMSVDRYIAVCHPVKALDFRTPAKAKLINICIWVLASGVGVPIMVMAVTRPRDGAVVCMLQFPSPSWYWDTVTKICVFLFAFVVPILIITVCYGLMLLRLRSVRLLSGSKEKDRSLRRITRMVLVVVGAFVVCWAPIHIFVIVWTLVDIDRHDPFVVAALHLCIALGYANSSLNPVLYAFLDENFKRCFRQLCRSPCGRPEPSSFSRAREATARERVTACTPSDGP
Experimental: as §2

[3] = test system: Guinea Pig Ileal Longitudinal Muscle; experiment: GPI, shift of the compound's effect by naloxone or nor-BNI; design: GPI nor-BN1 Ke: unit not given here
Experimental: as §1

δ-receptor = biological target: T4, δ-receptor (Mus musculus, UniProt P32300); experiment: Antagonism to DPDPE in Mouse Vas Deferens (MVD)
T4 construct: from tissue; host or cells: mouse vas deferens
T4 sequence (P32300 whole entry): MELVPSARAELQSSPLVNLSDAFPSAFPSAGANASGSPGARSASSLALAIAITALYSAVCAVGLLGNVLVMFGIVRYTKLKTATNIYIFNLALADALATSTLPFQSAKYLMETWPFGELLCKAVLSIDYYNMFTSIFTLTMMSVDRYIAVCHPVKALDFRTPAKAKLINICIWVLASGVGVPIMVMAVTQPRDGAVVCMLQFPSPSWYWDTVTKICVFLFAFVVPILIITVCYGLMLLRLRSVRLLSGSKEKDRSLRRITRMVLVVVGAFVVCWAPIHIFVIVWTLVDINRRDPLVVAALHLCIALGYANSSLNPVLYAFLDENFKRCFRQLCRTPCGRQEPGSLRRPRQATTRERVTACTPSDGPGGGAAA

[4] = test system: Guinea Pig Ileal Longitudinal Muscle; experiment: Agonist activity in Guinea Pig Ileal Longitudinal Muscle (GPI); conditions: for IC50: guinea pig ileum
Experimental: as §1

mouse T cells = experiment: Inhibiting proliferation of mouse T cells by Con-A stimulation ([3H]thymidine uptake, spleen cells); format: cell-based; conditions: for IC50: ConA-stimulated mouse T cells
Experimental: Now, the immunosuppressive activity of the compound 19 which is representative of the compounds of the present invention will be shown. Activity in inhibiting proliferation of mouse T cells by Con-A stimulation
A monocellular suspension was prepared by sterilely removing the spleen from a mouse and passing the spleen through a mesh. This suspension was adjusted to a concentration of 5×10^6 cells/ml and dispensed by the unit of 100 μl in all the individual wells of a 96-well plate. […] Eight hours before completion of the incubation, [^3 H]thymidine was added to the contents of the wells in a fixed ratio of 2 μCi/10 μl/well. Eight hours after this addition, the cells in the wells were collected on filter papers with the aid of a cell harvester. The cells on the filter papers were dried, then combined with a toluene type scintillator, and counted for the radioactivity of the [^3 H] thymidine occluded in the cells by means of a scintillation counter.
The ratio of suppression of T cell proliferation was calculated in accordance with the following formula:
Rate of suppression=(Radioactivity in the absence of compound-Radioactivityafter addition of compound)/(Radioactivity in the absence of compound-Radioactivity in the absence of ConA)

[5] = guinea pig brain homogenate, read-out: Bonding assay Ki value δ
[6] = MVD Antagonism to DPDPE, pA2, (20 nM)
[7] = MVD Antagonism to DPDPE, pA2, (50 nM)

CN1CC[C@]2(c3cccc(O)c3)Cc3[nH]c4ccccc4c3C[C@H]2C1 (relative stereo) [Compound 2, 2-Methyl-4aα-(3-hydroxyphenyl)-1,2,3,4,4a,5,11,11aβ-octahydro-6H-indolo[2,3-g]isoquinoline]
IC50 (Mouse Vas Deferens (MVD)): 68600 nM | Ki (μ opioid receptor): 1650 nM | Ki ratio κ/μ (μ opioid receptor): > 3.62 | Ki (κ opioid receptor): > 5970 nM | Ki ratio μ/δ (δ opioid receptor [1]): > 30.9 | Ki ratio μ/δ (δ opioid receptor [1]; selectivity ratio): 8.55 | Ki (δ opioid receptor [2]; [5]): 193 nM | GPI naloxone DR [3]: 1.12 | GPI nor-BN1 DR [3]: 1.25 | GPI nor-BN1 Ke [3]: 301 | GPI nor-BN1 pA2 [3]: 6.65 | Kb (δ-receptor; at 100 nM): 138 nM | MVD Antagonism to DPDPE at 100 nM, DR (δ-receptor; at 100 nM): 8.14 | IC50 [4]: 65100 nM

Cc1ccc2[nH]c3c(c2c1)C[C@H]1CN(C)CC[C@]1(c1cccc(O)c1)C3 (relative stereo) [Compound 4, 2-Methyl-4aα-(3-hydroxyphenyl)-9-methyl-1,2,3,4,4a,5,11,11aβ-octahydro-6H-indolo[2,3-q]isoquinoline]
IC50 (Mouse Vas Deferens (MVD)): 46100 nM | Ki (μ opioid receptor): 6420 nM | Ki ratio κ/μ (μ opioid receptor): > 1.81 | Ki (κ opioid receptor): > 11600 nM | Ki ratio μ/δ (δ opioid receptor [1]): > 9.35 | Ki ratio μ/δ (δ opioid receptor [1]; selectivity ratio): 5.18 | Ki (δ opioid receptor [2]; [5]): 1240 nM | GPI naloxone DR [3]: 0.62 | GPI nor-BN1 DR [3]: 1.17 | Kb (δ-receptor; at 100 nM): 427 nM | MVD Antagonism to DPDPE at 100 nM, DR (δ-receptor; at 100 nM): 3.37 | IC50 [4]: 28000 nM

CN1CC[C@]2(c3cccc(O)c3)Cc3[nH]c4ccc(Cl)cc4c3C[C@H]2C1 (relative stereo) [Compound 6, 2-Methyl-4aα-(3-hydroxyphenyl)-9-chloro-1,2,3,4,4a,5,11,11aβ-octahydro-6H-indolo[2,3-q]isoquinoline]
IC50 (Mouse Vas Deferens (MVD)): 23600 nM | Ki (μ opioid receptor): > 7090 nM | Ki ratio κ/μ (μ opioid receptor): > 3.86 | Ki (κ opioid receptor): > 27400 nM | Ki ratio μ/δ (δ opioid receptor [1]): > 24.9 | Ki ratio μ/δ (δ opioid receptor [1]; selectivity ratio): > 6.45 | Ki (δ opioid receptor [2]; [5]): 1100 nM | GPI naloxone DR [3]: 0.86 | GPI nor-BN1 DR [3]: 1.23 | GPI nor-BN1 Ke [3]: 77.0 | GPI nor-BN1 pA2 [3]: 7.16 | Kb (δ-receptor; at 100 nM): 240 nM | MVD Antagonism to DPDPE at 100 nM, DR (δ-receptor; at 100 nM): 5.16 | IC50 [4]: 7900 nM

CN1CC[C@]2(c3cccc(O)c3)Cc3[nH]c4c(F)cccc4c3C[C@H]2C1 (relative stereo) [Compound 8, 2-Methyl-4aα-(3-hydroxyphenyl)-7-fluoro-1,2,3,4,4a,5,11,11aβ-octahydro-6H-indolo[2,3-g]isoquinoline]
IC50 (Mouse Vas Deferens (MVD)): 25900 nM | Ki (μ opioid receptor): 4590 nM | Ki ratio κ/μ (μ opioid receptor): > 1.47 | Ki (κ opioid receptor): > 6750 nM | Ki ratio μ/δ (δ opioid receptor [1]): > 114 | Ki ratio μ/δ (δ opioid receptor [1]; selectivity ratio): 77.8 | Ki (δ opioid receptor [2]): 59 nM | GPI naloxone DR [3]: 0.80 | GPI nor-BN1 DR [3]: 1.04 | Kb (δ-receptor; MVD Antagonism to DPDPE at 100 nM, pA2, at 100 nM): 70.8 nM | MVD Antagonism to DPDPE at 100 nM, DR (δ-receptor; at 100 nM): 15.0 | IC50 [4]: 23000 nM

CN1CC[C@]2(c3cccc(O)c3)Cc3c(c4ccccc4n3C)C[C@H]2C1 (relative stereo) [Compound 12, 2-Methyl-4aα-(3-hydroxyphenyl)-1,2,3,4,4a,5,11,11aβ-octahydro-6-methyl-indolo[2,3-g]isoquinoline]
IC50 (Mouse Vas Deferens (MVD)): 25000 nM | Ki (μ opioid receptor): 1230 nM | Ki ratio κ/μ (μ opioid receptor): 0.31 | Ki (κ opioid receptor): 380 nM | Ki ratio μ/δ (δ opioid receptor [1]): 3.17 | Ki ratio μ/δ (δ opioid receptor [1]; selectivity ratio): 10.3 | Ki (δ opioid receptor [2]; [5]): 120 nM | GPI naloxone DR [3]: 0.61 | GPI nor-BN1 DR [3]: 0.70 | Kb (δ-receptor; at 100 nM): 138 nM | MVD Antagonism to DPDPE at 100 nM, DR (δ-receptor; at 100 nM): 8.27 | IC50 [4]: 38700 nM

Oc1cccc([C@]23CCN(CC4CC4)C[C@@H]2Cc2c([nH]c4ccccc24)C3)c1 (relative stereo) [Compound 19, 2-Cyclopropylmethyl-4aα-(3-hydroxyphenyl)-1,2,3,4,4a,5,11,11β-octahydro-6H-indolo[2,3-g]isoquinoline]
IC50 (Mouse Vas Deferens (MVD)): 28900 nM | Ki (μ opioid receptor): 716 nM | Ki (κ opioid receptor): 951 nM | activity in immunosuppression / inhibiting T cell proliferation, in words (mouse T cells): clearly strong activity in immunosuppression | inhibition at 0.1 µg/mL (mouse T cells; Mus musculus, T-cell, 48 h, 0.1 μg/ml, n = 3, read-out: Ratio of suppression of T cell proliferation): 6% | inhibition at 0.5 µg/mL (mouse T cells; Mus musculus, T-cell, 48 h, 0.5 μg/ml, n = 3, read-out: Ratio of suppression of T cell proliferation): 0% | inhibition at 0.75 µg/mL (mouse T cells; Mus musculus, T-cell, 48 h, 0.75 μg/ml, n = 3, read-out: Ratio of suppression of T cell proliferation): 18% | inhibition at 1 µg/mL (mouse T cells; Mus musculus, T-cell, 48 h, 1.0 μg/ml, n = 3, read-out: Ratio of suppression of T cell proliferation): 1% | inhibition at 2.5 µg/mL (mouse T cells; Mus musculus, T-cell, 48 h, 2.5 μg/ml, n = 3, read-out: Ratio of suppression of T cell proliferation): 33% | inhibition at 5 µg/mL (mouse T cells; Mus musculus, T-cell, 48 h, 5.0 μg/ml, n = 3, read-out: Ratio of suppression of T cell proliferation): 94% | inhibition at 7.5 µg/mL (mouse T cells; Mus musculus, T-cell, 48 h, 7.5 μg/ml, n = 3, read-out: Ratio of suppression of T cell proliferation): 100% | inhibition at 10 µg/mL (mouse T cells; Mus musculus, T-cell, 48 h, 10.0 μg/ml, n = 3, read-out: Ratio of suppression of T cell proliferation): 100% | inhibition at 12.5 µg/mL (mouse T cells; Mus musculus, T-cell, 48 h, 12.5 μg/ml, n = 3, read-out: Ratio of suppression of T cell proliferation): 100% | inhibition at 15 µg/mL (mouse T cells; Mus musculus, T-cell, 48 h, 15.0 μg/ml, n = 3, read-out: Ratio of suppression of T cell proliferation): 100% | inhibition at 17.5 µg/mL (mouse T cells; Mus musculus, T-cell, 48 h, 17.5 μg/ml, n = 3, read-out: Ratio of suppression of T cell proliferation): 100% | inhibition at 20 µg/mL (mouse T cells; Mus musculus, T-cell, 48 h, 20.0 μg/ml, n = 3, read-out: Ratio of suppression of T cell proliferation): 100% | IC50 (mouse T cells; Mus musculus, T-cell, read-out: IC50, activity in inhibiting T cell hyperplasia (Table 3)): 2.7 µg/mL | IC50 (mouse T cells; Mus musculus, T-cell, read-out: IC50 value, immunosuppression (text to Table 2)): 3 µg/mL | Ki (δ opioid receptor [2]): 3.5 nM | GPI naloxone DR [3]: 0.93 | GPI nor-BN1 DR [3]: 0.95 | MVD Antagonism to DPDPE, DR (δ-receptor; (20 nM)): 5.17 | MVD Antagonism to DPDPE, DR (δ-receptor; (50 nM)): 9.62 | Kb (δ-receptor; [6]): 5.01 nM | Kb (δ-receptor; [7]): 6.03 nM | effect on inhibition of contraction by DPDPE, in words (δ-receptor; Mouse Vas Deferens): selectively attenuate the inhibition of contraction by DPDPE | effect on contraction of guinea pig ileum, in words [4]: avoids affecting the inhibition of contraction of the ileum of a guinea pig | IC50 [4]: 34600 nM

CN1CC[C@]2(c3cccc(O)c3)Cc3[nH]c4ccccc4c3C[C@@]2(O)C1 (relative stereo) [Compound 54, 2-Methyl-4aα-(3-hydroxyphenyl)-11aβ-hydroxy-1,2,3,4,4a,5,11,11a-octahydro-6H-indolo[2,3-q]isoquinoline]
IC50 (Mouse Vas Deferens (MVD)): 10200 nM | Ki (κ opioid receptor): 662 nM | Ki (δ opioid receptor [2]): 2.75 nM | GPI naloxone DR [3]: 1.30 | GPI nor-BN1 DR [3]: 3.30 | GPI nor-BN1 Ke [3]: 8.70 | GPI nor-BN1 pA2 [3]: 8.06 | MVD Antagonism to DPDPE, DR (δ-receptor; (50 nM)): 22.4 | Kb (δ-receptor; [6]): 5.75 nM | Kb (δ-receptor; [7]): 1.7 nM | IC50 [4]: 5960 nM
